Results on 27 compounds are retold here after ChEMBL document CHEMBL4152353, “Synthesis of DNA interactive C3-trans-cinnamide linked β-carboline conjugates as potential cytotoxic and DNA topoisomerase I inhibitors” (Bioorg Med Chem, 2018).

The subject of one assay is MCF7. The experiment in a line: Cytotoxicity against human MCF7 cells after 48 hrs by MTT assay. It is filed as functional, cell-based. The conditions noted are these: MCF7, 48 h. (In general: Tetrazolium dyes change colour on reduction, which living cells bring about.)
The test system of another assay is A549. The experiment in a line: Cytotoxicity against human A549 cells after 48 hrs by MTT assay. It counts as functional, cell-based. The conditions noted are these: A549, 48 h.
The next assay has as its system B16. In words: Cytotoxicity against mouse B16 cells after 48 hrs by MTT assay. It is filed as functional, cell-based. The conditions noted are these: B16, 48 h.
The next assay has as its system NIH3T3. In words: Cytotoxicity against mouse NIH/3T3 cells after 48 hrs by MTT assay. It is filed as cell-based. As to conditions: NIH3T3, 48 h.
The next assay relates to HeLa. The experiment in a line: Cytotoxicity against human HeLa cells after 48 hrs by MTT assay. It is filed as functional, cell-based.
The test system of another assay is Calf thymus DNA. In words: Binding affinity to calf thymus DNA assessed as increase in viscosity at 15 uM by viscometric method. It counts as nucleic-acid assay. As to conditions: Bos taurus.

Activity calls are given as the source filed them. The rule behind the calls is not given here.

Usually IC50 stands for the midpoint of a concentration-inhibition curve. Higher therefore signals lower potency. For the compound `O=C(/C=C/c1ccc(Cl)cc1)NCc1cc2c([nH]c3ccccc32)c(-c2cccc(F)c2)n1`, the IC50 in the assay with MCF7 is 18.3 nM; in the assay with A549, 19.6 nM; in the assay on B16, 18.2 nM; with NIH3T3, 43.6 nM; with HeLa, 19.2 nM.
Turning to `COc1ccc(-c2nc(CNC(=O)/C=C/c3ccc(O)c(OC)c3)cc3c2[nH]c2ccccc23)cc1`, the IC50 in the assay with MCF7 was 17.2 nM; in the assay on A549, 21.2 nM; with B16, 19.8 nM; in the assay on NIH3T3 it was 39.9 nM; in the assay on HeLa, 24.9 nM.
Take `COc1cc(/C=C/C(=O)NCc2cc3c([nH]c4ccccc43)c(-c3cc(OC)c(OC)c(OC)c3)n2)cc(OC)c1OC`: the IC50 in the assay on MCF7 came to 16.5 nM; with A549, 21.3 nM; in the assay with B16, 17.2 nM; with NIH3T3 it was 38.9 nM; with HeLa, 23.5 nM.
As for `COc1cc(-c2nc(CNC(=O)/C=C/c3ccc(Cl)c(Cl)c3)cc3c2[nH]c2ccccc23)cc(OC)c1OC`, the IC50 is 17.5 nM in the assay on MCF7; 20.4 nM in the assay with A549; 16.9 nM with B16; 39.2 nM in the assay with NIH3T3; 25.9 nM with HeLa.
On to `O=C(/C=C/c1cccc(O)c1)NCc1cc2c([nH]c3ccccc32)c(-c2cccc(F)c2)n1`, for which the IC50 with MCF7 is 19.2 nM; with A549 it was 23.4 nM; in the assay on B16 it was 24.9 nM; with NIH3T3, 35.7 nM; in the assay on HeLa it was 27 nM.
On to `CC[n+]1c(-c2ccccc2)c2cc(N)ccc2c2ccc(N)cc21`, for which the outcome with Calf thymus DNA was Active.
As to `COc1cc(/C=C/C(=O)NCc2cc3c([nH]c4ccccc43)c(-c3cc(OC)c(OC)c(OC)c3)n2)ccc1O`, the concentration for half-maximal inhibition (IC50) in the assay on MCF7 came to 17.6 nM; with A549, 18.3 nM; in the assay on B16 it was 19 nM; with NIH3T3, 43.1 nM; with HeLa, 26 nM.
`COc1cccc2c1C(=O)c1c(O)c3c(c(O)c1C2=O)C[C@@](O)(C(=O)CO)C[C@@H]3O[C@H]1C[C@H](N)[C@H](O)[C@H](C)O1` [DOXORUBICIN]: the 50% inhibitory concentration (IC50) is 580 nM with MCF7, 670 nM with B16, 1720 nM in the assay with NIH3T3 and 780 nM in the assay on HeLa.
Take `O=C(/C=C/c1ccc(F)cc1)NCc1cc2c([nH]c3ccccc32)c(-c2cccc(F)c2)n1`: the IC50 was determined as 16.5 nM with MCF7; 16.3 nM with A549; 16.8 nM in the assay with B16; 30.8 nM in the assay on NIH3T3; 24.3 nM with HeLa.
For `COc1cc(-c2nc(CNC(=O)/C=C/c3ccc(Cl)cc3)cc3c2[nH]c2ccccc23)cc(OC)c1OC`, in that order: 17.5 nM, 18.9 nM, 18.7 nM, 35.6 nM and 26.8 nM.
In the case of `COc1cc(/C=C/C(=O)NCc2cc3c([nH]c4ccccc43)c(-c3cccc(F)c3)n2)ccc1O`, the half-inhibitory concentration (IC50) is 17.9 nM in the assay with MCF7; 22.4 nM in the assay with A549; 19.4 nM with B16; 36.9 nM in the assay on NIH3T3; 23.9 nM in the assay with HeLa.
`COc1ccc(-c2nc(CNC(=O)CCCl)cc3c2[nH]c2ccccc23)cc1`: the IC50 in the assay with MCF7, with A549, in the assay with NIH3T3 and in the assay on HeLa was greater than 50000 nM each time.
`C=CCNC(=O)/C=C/c1cccc(O)c1`: the IC50 with MCF7, in the assay on A549, with NIH3T3 and in the assay on HeLa was greater than 50000 nM each time.
As to `COc1ccc(-c2nc(CNC(=O)/C=C/c3cc(OC)ccc3OC)cc3c2[nH]c2ccccc23)cc1`, the half-maximal inhibitory concentration (IC50) was 16.5 nM in the assay on MCF7; 18.9 nM in the assay with A549; 22.1 nM in the assay on B16; 34.4 nM in the assay on NIH3T3; 25.4 nM in the assay on HeLa.
Consider `COc1cc(-c2nc(CNC(=O)/C=C/c3cc(F)cc(F)c3)cc3c2[nH]c2ccccc23)cc(OC)c1OC`, for which the concentration for half-maximal inhibition (IC50) came out at 19.6 nM in the assay with MCF7; 21.6 nM with A549; 24.1 nM in the assay with B16; 36.3 nM in the assay on NIH3T3; 23.8 nM with HeLa.
The corresponding values for `COc1ccc(-c2nc(CNC(=O)/C=C/c3ccc(F)cc3)cc3c2[nH]c2ccccc23)cc1` are 18.2 nM, 20.2 nM, 21.9 nM, 36.9 nM and 22.8 nM.
`O=C(/C=C/c1ccc(Cl)c(Cl)c1)NCc1cc2c([nH]c3ccccc32)c(-c2cccc(F)c2)n1`: the concentration for half-maximal inhibition (IC50) in the assay with MCF7 stood at 17 nM; with A549, 18 nM; with B16 it was 18.9 nM; in the assay on NIH3T3 it was 39 nM; in the assay on HeLa, 24.9 nM.
Take `C/C=C/C(=O)NCc1cc2c([nH]c3ccccc32)c(-c2ccc(OC)cc2)n1`: the 50% inhibitory concentration (IC50) in the assay on MCF7 stood at 10800 nM; in the assay with A549, 3360 nM; with NIH3T3, 2670 nM; with HeLa, 5410 nM.
With `COc1ccc(-c2nc(CNC(=O)/C=C/c3ccc(Cl)c(Cl)c3)cc3c2[nH]c2ccccc23)cc1`, the IC50 with MCF7 turned out to be 16.4 nM; in the assay on A549, 18.4 nM; in the assay with B16, 23 nM; in the assay with NIH3T3 it was 37.5 nM; in the assay on HeLa it was 21.6 nM.
In the case of `COc1ccc(-c2nc(CNC(=O)/C=C/c3cc(F)cc(F)c3)cc3c2[nH]c2ccccc23)cc1`, the 50% inhibitory concentration (IC50) was determined as 17.2 nM with MCF7; 20 nM in the assay on A549; 23.9 nM in the assay on B16; 37.5 nM with NIH3T3; 24.6 nM in the assay with HeLa.
With `COc1cc(-c2nc(CNC(=O)/C=C/c3cccc(O)c3)cc3c2[nH]c2ccccc23)cc(OC)c1OC`, the half-maximal inhibitory concentration (IC50) in the assay on MCF7 was found to be 16.8 nM; with A549, 19.5 nM; in the assay on B16, 21.8 nM; in the assay with NIH3T3, 38.2 nM; in the assay on HeLa it was 23.6 nM.
For `COc1cc(/C=C/C(=O)NCc2cc3c([nH]c4ccccc43)c(-c3cccc(F)c3)n2)cc(OC)c1OC`, in that order: 16.2 nM, 17.9 nM, 19.8 nM, 36 nM and 23 nM.
Regarding `COc1ccc(-c2nc(CNC(=O)/C=C/c3cc(OC)c(OC)c(OC)c3)cc3c2[nH]c2ccccc23)cc1`, the IC50 in the assay on MCF7 came to 13.9 nM; in the assay with A549 it was 19.7 nM; with B16, 17.4 nM; with NIH3T3, 39.3 nM; in the assay on HeLa it was 22.9 nM.
Regarding `COc1cc(-c2nc(CNC(=O)/C=C/c3ccc(F)cc3)cc3c2[nH]c2ccccc23)cc(OC)c1OC`, the IC50 in the assay with MCF7 is 16.4 nM; in the assay on A549 it was 18.7 nM; in the assay on B16 it was 17.2 nM; in the assay on NIH3T3, 43 nM; in the assay on HeLa it was 20 nM.
Consider `COc1ccc(OC)c(/C=C/C(=O)NCc2cc3c([nH]c4ccccc43)c(-c3cccc(F)c3)n2)c1`, for which the 50% inhibitory concentration (IC50) with MCF7 stood at 17.5 nM; in the assay on A549, 22.2 nM; in the assay on B16, 19.9 nM; in the assay on NIH3T3 it was 39.6 nM; with HeLa, 21.9 nM.
As for `COc1ccc(OC)c(/C=C/C(=O)NCc2cc3c([nH]c4ccccc43)c(-c3cc(OC)c(OC)c(OC)c3)n2)c1`, the IC50 in the assay on MCF7 was 17.2 nM; in the assay on A549, 18.8 nM; in the assay on B16 it was 19.2 nM; in the assay with NIH3T3, 39 nM; in the assay on HeLa, 25.1 nM.
As to `O=C(/C=C/c1cc(F)cc(F)c1)NCc1cc2c([nH]c3ccccc32)c(-c2cccc(F)c2)n1`, the IC50 in the assay on MCF7 came out at 16.5 nM; in the assay with A549, 21 nM; in the assay with B16, 18.2 nM; in the assay on NIH3T3, 36 nM; in the assay with HeLa, 23.6 nM.
